US11390621B2, “Chiral indole compounds and their use” (ARIAGEN, INC., priority 2019, dated 2022)

Assays:
CYP3A4 = molecular target: T1, CYP3A4 (Homo sapiens, UniProt P08684); test: CYP profiling: human liver microsomes with CYP3A4 inhibitor ketoconazole; assay type: in vitro ADME; set-up: % Compound Metabolized at 30 min, CYP3A4 Inhibitor: concentration or dose not given beside the values; conditions: HLMs; for % Inhibition Relative to Negative Control, 3A4: 30 min
T1 construct: from tissue; host or cells: human liver microsomes
T1 sequence (P08684 whole entry): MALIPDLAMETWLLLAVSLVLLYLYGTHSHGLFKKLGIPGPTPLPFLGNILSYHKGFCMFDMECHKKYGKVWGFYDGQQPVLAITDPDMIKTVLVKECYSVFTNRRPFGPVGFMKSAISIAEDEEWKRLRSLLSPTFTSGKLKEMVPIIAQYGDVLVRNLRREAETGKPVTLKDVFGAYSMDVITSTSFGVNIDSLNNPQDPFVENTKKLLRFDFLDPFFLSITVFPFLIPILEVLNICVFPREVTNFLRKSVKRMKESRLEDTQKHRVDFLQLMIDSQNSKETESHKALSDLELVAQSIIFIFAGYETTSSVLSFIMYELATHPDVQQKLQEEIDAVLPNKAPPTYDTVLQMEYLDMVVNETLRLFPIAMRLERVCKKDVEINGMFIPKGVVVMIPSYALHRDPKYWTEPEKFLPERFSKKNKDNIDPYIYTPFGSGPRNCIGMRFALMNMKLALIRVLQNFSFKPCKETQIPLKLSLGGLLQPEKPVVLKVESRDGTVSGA
Description: (§1) In order to investigate the contributions of CYP1A2 and CYP3A4 to the metabolism of the compounds of the present disclosure, human liver microsomes were incubated with the test compounds for 30 minutes in the presence of selective chemical inhibitors furafylline (1A2) and ketoconazole (3A4).

CYP1A2 = molecular target: T2, CYP1A2 (Homo sapiens, UniProt P05177); test: CYP profiling: human liver microsomes with CYP1A2 inhibitor furafylline; assay type: in vitro ADME; set-up: % Compound Metabolized at 30 min, CYP1A2 Inhibitor: concentration or dose not given beside the values; conditions: HLMs; for % Inhibition Relative to Negative Control, 1A2: 30 min
T2 construct: from tissue; host or cells: human liver microsomes
T2 sequence (P05177 1-516): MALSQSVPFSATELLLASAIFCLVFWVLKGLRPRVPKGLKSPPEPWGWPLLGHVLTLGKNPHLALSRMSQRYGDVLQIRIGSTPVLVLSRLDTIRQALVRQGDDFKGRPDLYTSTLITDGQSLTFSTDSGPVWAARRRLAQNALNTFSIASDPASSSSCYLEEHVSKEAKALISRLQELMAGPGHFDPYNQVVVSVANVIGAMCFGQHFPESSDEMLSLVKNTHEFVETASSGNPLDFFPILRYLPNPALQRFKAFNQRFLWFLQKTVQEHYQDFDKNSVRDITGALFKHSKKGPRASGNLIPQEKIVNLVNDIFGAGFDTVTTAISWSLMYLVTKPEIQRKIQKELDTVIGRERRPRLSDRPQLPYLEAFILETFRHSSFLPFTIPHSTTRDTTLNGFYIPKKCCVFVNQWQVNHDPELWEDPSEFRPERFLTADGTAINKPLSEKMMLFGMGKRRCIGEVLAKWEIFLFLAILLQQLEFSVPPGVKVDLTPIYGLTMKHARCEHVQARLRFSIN
Description: as §1

[1] = CYP profiling: turnover in human liver microsomes, 30 min, no inhibitor; assay type: in vitro ADME; set-up: % Compound Metabolized at 30 min, No Inhibitor: concentration or dose not given beside the values; conditions: HLMs
Description: as §1

AhR = molecular target: T3, AhR (Homo sapiens, UniProt P35869); test: EROD assay (7-ethoxy-resorufin-O-deethylase; CYP1A1 activity) in human HepG2 cells; assay type: cell-based; conditions: for EC90: HepG2, human HepG2 cells
T3 construct: host or cells: human HepG2 cells
T3 sequence (P35869 11-848): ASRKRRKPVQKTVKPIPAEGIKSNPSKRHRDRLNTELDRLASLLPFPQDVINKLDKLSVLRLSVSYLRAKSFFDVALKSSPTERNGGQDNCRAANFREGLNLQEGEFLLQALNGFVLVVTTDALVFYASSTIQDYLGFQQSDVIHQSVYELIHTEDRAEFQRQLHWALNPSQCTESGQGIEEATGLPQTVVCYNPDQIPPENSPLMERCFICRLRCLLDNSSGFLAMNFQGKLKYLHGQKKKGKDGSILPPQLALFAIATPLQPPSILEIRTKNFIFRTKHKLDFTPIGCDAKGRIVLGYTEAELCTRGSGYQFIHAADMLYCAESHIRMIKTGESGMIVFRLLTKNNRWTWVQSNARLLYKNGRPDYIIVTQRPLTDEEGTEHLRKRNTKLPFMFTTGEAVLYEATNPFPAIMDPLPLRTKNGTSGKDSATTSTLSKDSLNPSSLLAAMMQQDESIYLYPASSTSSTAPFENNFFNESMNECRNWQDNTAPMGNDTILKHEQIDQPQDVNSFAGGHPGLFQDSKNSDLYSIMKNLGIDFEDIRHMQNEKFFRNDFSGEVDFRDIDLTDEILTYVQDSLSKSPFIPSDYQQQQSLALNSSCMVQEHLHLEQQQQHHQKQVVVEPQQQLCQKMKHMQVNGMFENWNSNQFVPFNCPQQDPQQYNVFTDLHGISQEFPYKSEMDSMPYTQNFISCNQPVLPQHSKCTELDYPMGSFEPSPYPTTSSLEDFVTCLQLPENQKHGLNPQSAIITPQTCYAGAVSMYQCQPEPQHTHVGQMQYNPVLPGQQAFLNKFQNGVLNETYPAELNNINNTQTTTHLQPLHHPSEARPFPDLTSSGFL
Description: CYP1A1 induction is under the control of the AhR signaling pathway. This Example describes an in vitro assay (7-ethoxy-resorufin-O-deethylase (EROD) assay) that evaluated the AhR modulating activities of the indole compounds described herein. In this assay, the indole compounds were incubated with human HepG2 cells or mouse Hepa1-6 cells. The activity of CYP1A1 in the cells was measured by the conversion of substrate 7-ethoxyresorufin, with the readout being a fluorescence signal associated with the conversion product. The EC50 values of the indole compounds as well as the maximum luminescence induced by them in the assay were determined.
Human HepG2 cells were obtained from Sigma Aldrich (Catalog 85011430-1VL).
Human HepG2 cells were grown to 60-80% confluency in tissue culture flasks, lifted with non-enzymatic cell dissociation solution (cell stripper), seeded in a 384-well plate at 5,000 cells per well, treated with the test compounds, and incubated for 20 hours overnight at 37° C. The treatment medium was removed and a solution of substrate 7-ethoxyresorufin (ETX) was added to initiate the reaction. The plate was incubated at 37° C. for 30 minutes. The reaction was subsequently terminated by adding tempered methanol. Fluorescent emission was measured at 590 nm with excitation at 530 nm in a FLEXSTATION III instrument (Molecular Devices).

Structure (SMILES)	% Compound Metabolized at 30 min, CYP3A4 Inhibitor (CYP3A4)	% Inhibition Relative to Negative Control, 3A4 (CYP3A4)	% Compound Metabolized at 30 min, CYP1A2 Inhibitor (CYP1A2)	% Inhibition Relative to Negative Control, 1A2 (CYP1A2)	% Compound Metabolized at 30 min, No Inhibitor [1]	EC90 (AhR; Plate 1)	EC90 (AhR; Plate 2)	EC50 (AhR; human HepG2 cells, Plate 1)	EC50 (AhR; human HepG2 cells, Plate 2)	metabolic turnover (in words) [1]	fold more potent than ARI-164 by EC50 (AhR; human HepG2 cells)	fold more potent than ARI-164 by EC90 (AhR; human HepG2 cells)
CC[C@H](O)c1csc(C(=O)c2c[nH]c3cc(F)ccc23)n1 [ARI-164, (S)-(6-Fluoro-1H-indol-3-yl)(4-(1-hydroxypropyl)thiazol-2-yl)methanone]	34%	8%	4%	89%	37%	134 nM	138 nM	104 nM	104 nM	–	–	–
N[C@@H](c1csc(C(=O)c2c[nH]c3cc(F)ccc23)n1)C(F)(F)F [ARI-224]	8%	11%	7%	22%	9%	–	152 nM	–	33.7 nM	low turnover	3.1 ×	0.90 ×
